Data as given in US20150266864A1, “HETEROAROMATIC COMPOUNDS, METHOD FOR PREPARING THE COMPOUNDS, PHARMACEUTICAL COMPOSITIONS, USES AND METHOD FOR TREATING ACUTE AND CHRONIC PAIN” (CRISTÁLIA PRODUTOS QUÍMICOS FARMACÊUTICOS LTDA, priority 2012, published 2015).
Structures can show the parent of a compound that is named as a salt.

Key:
Swiss-type male mice = experiment: RotaRod performance test, motor coordination
Procedure: The assessment of motor coordination in mice, by the rotarod performance test, was carried out to detect any possible sedative or muscle relaxant effect caused by the compounds of the present invention, previously tested in acute and neuropathic pain models. This test was carried out according to the method of described by Dunham & Miya and animal motor coordination was evaluated using RotaRod apparatus [Dunham M. S. & Miya. R. T. (1957). J. Amer. Pharmac. Assoc. Sci. Edit. 1957, 46, 208-209].
The RotaRod apparatus (Model 412 EFF, Insight Equipements, Brazil) is a device that measures motor coordination and thus evaluates balance alterations in mice. The apparatus consists of an acrylic box splited into four compartments with a rotational cylinder among them. The cylinder rotates at constant speed driven by a motor and regulated to the constant speed mode of 5-37 revolutions per minute (rpm). In this study the speed was set up to 9 rpm.
To remain on the rotational cylinder, the animal needs to move around, so that the motor coordination can be quantified. The four compartments have drop detection system, through the impact, a microprocessor circuit, for timing the permanence of the animal at the compartment, and for counting the number of falls.
The day before the test, Swiss-type male mice (19-25 g) were placed on the rotational cylinder, set up to the constant speed mode of 9 rpm for adaptation and learning. A group of 10 mice were used for each tested compound, and the total period spent on the rotational cylinder (in seconds) was recorded for a period of 180 seconds (cut off time) and it was accept a maximum of three falls for each animal. Motor coordination was assessed at times 0 (before treatment), 15, 30, 60 and 120 minutes after compounds administration at a dose of 32.25 μmol/kg.
All compounds were administered intraperitoneally (ip).
The Student's t-test was also used to compare means between two experimental groups. Differences were considered significant when p<0.05.

[1] = test system: rats subjected to sciatic nerve CCI; experiment: Chronic constrictive injury (CCI) of the sciatic nerve, thermal hyperalgesia, paw withdrawal test; type: in vivo, rat
Procedure: The chronic constrictive injury (CCI) was induced by sciatic nerve ligation according to the method described by Bennett and Xie [Bennett. G. J.; Xie, Y. K. Pain […], 33: 87-107]. Male Wistar rats, weighing 180-240 g, were anesthetized with a mixture of ketamine and xylazine (60 mg/kg and 5 mg/kg, respectively), intraperitoneally. Through an incision of 0.5 cm (parallel and spaced about 10 mm from the left femur) the sciatic nerve was identified. With a thin glass rod, a small segment of sciatic nerve was exposed and four loosely ligatures were placed around the sciatic nerve spaced 1 mm each other using a 3-0 silk suture thread. After the procedure, the skin was sutured and a topical antiseptic was applied.
To assess animal behavior in response to hyperalgesic phenomenon resulting from sciatic nerve chronic constrictive injury, the model described by Hargreaves and Dubner was used [Hargreaves K., Dubner R., Brown F., Flores C., Joris J. Pain 1988, 32 (1): 77-88]. In this regard, paw withdrawal in response to a painful phenomenon was performed. This is a nociceptive test which involves a peripheral short thermal stimulus induced by the radiant heat of an incandescent lamp bulb. […] Radiant heat has an advantage over the other modes of thermal stimulation in that it produces no tactile stimulus. [Le Bars D., Gozariu M., Cadden S. W. Pharmacology Reviews, 2001, 53 (4), 597-652]. In this assay, a plantar test analgesimeter (ITC Life Science Inc, USA) was used.
Animals were placed in transparent acrylic boxes with tempered glass pane floor for 40 minutes to acclimate. After this period, the radiant heat was applied to the footpads of animals's hindpaws until they make the movement of paw withdrawal. The paw withdrawal latency was defined as the time recorded from the beginning of the radiant heat stimulus and the paw withdrawal. For each paw, three latency records were made, and the average value was used to define the paw withdrawal time control The maximum time that each animal was exposed to the radiant heat source (cut-off) was defined as three times the paw withdrawal time control, to avoid tissue injuries in animals's paws.
The day before surgery, rats, defined as “control before surgery”, were placed in acrylic boxes to the paw withdrawal test. On the 7th day after the surgery (CCI), the paw withdrawal test was again performed in order to verify neuropathic pain has been effectively developed in the left paw—defined as “post-surgery control.”
The paw withdrawal test was assessed during the days 1, 3, and 7 of the treatment (with amitriptyline hydrochloride or the compounds of examples of the instant invention) and on days 1, 3, and 7 after treatment interruption.
(§1) Differences were considered significant when p<0.05.

rats subjected to SNL [2] = experiment: Spinal nerve ligation (SNL) L5 model, thermal hyperalgesia; type: in vivo, rat
Procedure: (§2) This experimental model was proposed by Kim and Chung [Kim, S. H.; Chung, J. M. Pain 1992, 50: 355-363] and consists of ligation of spinal nerves. Male Wistar rats, 180-220 g, were anesthetized with a mixture of ketamine and xylazine (60 mg/kg and 5 mg/kg, respectively) intraperitoneally. After the dorsal region asepsy, an incision was made between L5 and S1. The L6 transverse process was removed for locating the nerves L4 and L5, which were carefully isolated, and tight ligation of the L5 nerve with 6.0 silk thread was made, interrupting flow of the axon of the nerve. After this procedure, para-spinal muscles and skin were sutured, and then a topical antiseptic was applied. False operated animals (sham) were subjected to the same procedure, however the spinal nerve was not ligated.
This method aims to evaluate the animal behavior in response to hyperalgesic phenomenon resulting from the injury induced by the ligament of spinal nerve (L5). In this regard, paw withdrawal in response to thermal stimulus was used, and the thermal stimulus was induced by the radiant heat of an incandescent lamp bulb. The paw withdrawal test was performed as described for the assessment of thermal hyperalgesia in the sciatic nerve chronic constrictive injury model.
as §1
(§3) The treatment started on the 7th day after surgery. Compounds were diluted in water or DMSO and administered through intraperitoneal route on daily basis, during 7 days, at a dose of […]. The effectiveness of tested compounds was assessed on days 1, 3, and 7 days after treatment, always before the next administration of the compound. Latencies were also assessed on days 1, 3, and 7 after treatment interruption.

rats subjected to SNL [3] = experiment: Spinal nerve ligation (SNL) L5 model, mechanical allodynia (digital Von Frey); type: in vivo, rat; details: after 7 days of treatment, 32.25 μmol/kg ip
Procedure: as §2
To evaluate the development of mechanical allodynia, digital analgesimeter (Model EFF301; Insight Equipments), digitalized version coupled to a pointed filament (Von Frey model variant) was used. This test aims to assess changes in tactile sensitivity in response to a mechanical stimulus as a result of a neural damage. The device consisted of a hand-held force transducer fitted with a sensor tip, through which a pressure with increasing strength is applied against the footpad of the animals hindpaw to assess the threshold of paw withdrawal, that is, the digital analgesimeter records the maximal strength, in grams (g), in which the animal withstands until the paw withdrawal reflex.
Animals were placed in individual acrylic boxes and let to acclimate for 30 min before the beginning of the test. After this period, the thresholds of hindpaw withdrawal were determinded. For each hindpaw, five records of the withdrawal thresholds were made, and the average for each hindpaw was defined as the paw withdrawal threshold control.
as §3, §1

[4] = first day of treatment, 32.25 μmol/kg ip
[5] = male, Swiss, mouse, in vivo, 30 min
[6] = male, Swiss, mouse, in vivo, 60 min
[7] = male, Swiss, mouse, in vivo, 120 min
[8] = after 7 days of 32.25 μmol/kg ip

For `CC(=O)O.OC1(c2ccc(Cl)cc2)CCN(CCc2cncnc2-c2ccc(F)cc2)CC1` [C16, 4-(4-chlorophenyl)-4-hydroxy-1-{2-[4-(4-fluorophenyl)pyrimidin-5-yl]ethyl}piperidinium acetate], the “animal residence time on the rotational cylinder compared to controls” value (Swiss-type male mice; 15 minutes after administration, 32.25 μmol/kg) was “equal to the time observed for the negative control, and significantly higher than the time observed for the control amitriptyline hydrochloride”, the “Mice residence time on the rotational cylinder” value (shortened to “Mice residence time”) (Swiss-type male mice; T 15 min after ip administration, 32.25 μmol/kg, 9 rpm, cut off 180 s, mean ± SEM) was 178.6 s and the “Mice residence time” value (Swiss-type male mice; T 30 min after ip administration, 32.25 μmol/kg (diazepam 2 mg/kg), 9 rpm, cut off 180 s, mean ± SEM) was 178.8 s. The “Mice residence time” value (Swiss-type male mice; T 60 min after ip administration, 32.25 μmol/kg (diazepam 2 mg/kg), 9 rpm, cut off 180 s, mean ± SEM) was 150.8 s, the “Mice residence time” value (Swiss-type male mice; T 120 min after ip administration, 32.25 μmol/kg (diazepam 2 mg/kg), 9 rpm, cut off 180 s, mean ± SEM) was 126.3 s and the “antinociceptive effect, paw withdrawal latency vs post-surgery control” value (shortened to “antinociceptive effect … vs post-surgery control”) [1, 4] was “antinociceptive effects in the first day of treatment”. For the same compound, the “latency increase, statistical significance” value ([1]; first day of treatment, 32.25 μmol/kg ip, p<0.05 or p<0.005) was “the latency increase was statistically significant”.

For `CCOC(=O)C1(c2ccccc2)CCN(CCc2c[nH]nc2-c2ccc(F)cc2)CC1` [C18, Ethyl 1-{2-[3-(4-fluorophenyl)-1H-pyrazol-4-yl]ethyl}-4-phenylpiperidine-4-carboxylate], the “antinociceptive effect … vs post-surgery control” value [1, 4] was “antinociceptive effects in the first day of treatment” and the melting point was 138 to 139.5 °C.

With `Cl.Cl.Fc1ccc(-c2n[nH]cc2CCN2CCOCC2)cc1.O` (hydrate or solvate) [C9, 4-{2-[3-(4-fluorophenyl)-1H-pyrazol-4-yl]ethyl}morpholine dihydrochloride monohydrate] the melting point was 113 to 126 °C (dec.).

`Cl.Cl.Fc1ccc(-c2n[nH]cc2CCN2CCCCC2)cc1.O` (hydrate or solvate) [C3, 1-{2-[3-(4-fluorophenyl)-1H-pyrazol-4-yl]ethyl}piperidine dihydrochloride monohydrate] showed a melting point of 277 to 279 °C.

With `Cl.Fc1ccc(-c2nocc2CCN2CCCCC2)cc1` [C5, 1-{2-[3-(4-fluorophenyl)-1,2-oxazol-4-yl]ethyl}piperidine hydrochloride] the “Mice residence time” value (Swiss-type male mice; [5]) was 178.6 s, the “Mice residence time” value (Swiss-type male mice; [6]) was 173.4 s and the “Mice residence time” value (Swiss-type male mice; [7]) was 179.2 s. The “Mice residence time” value (Swiss-type male mice; male, Swiss, mouse, in vivo, ip, 15 min) was 180.0 s and the “antinociceptive effect … vs post-surgery control” value [1, 4] was “antinociceptive effects in the first day of treatment”.

In the case of `CCN1CCN(CCc2c[nH]nc2-c2ccc(F)cc2)CC1.Cl.Cl.Cl.O.O.O` (hydrate or solvate) [C12, 1-ethyl-4-{2-[3-(4-fluorophenyl)-1H-pyrazol-4-yl]ethyl}piperazine trihydrochloride trihydrate], the melting point is reported as 226 to 237 °C (dec.).

For `CN(C)CCC=C1c2ccccc2CCc2ccccc21` [amitriptyline hydrochloride, reference compound], the “effect on thermal hyperalgesia after treatment interruption” value (rats subjected to SNL [2]; [8]) was “the analgesic effect is not maintained”, the “paw withdrawal latency, thermal hyperalgesia” value (rats subjected to SNL [2]; after 7 days of treatment, 32.25 μmol/kg ip) was “significantly increased” and the “Mice residence time” value (Swiss-type male mice; [5]) was 151.0 s. The “Mice residence time” value (Swiss-type male mice; [6]) was 175.8 s, the “Mice residence time” value (Swiss-type male mice; [7]) was 161.8 s and the “antinociceptive effect after treatment interruption” value [1, 8] was “the antinociceptive effect was observed only after the first day”. For the same compound, the paw withdrawal latency ([1]; day 7 of treatment, 32.25 μmol/kg ip daily, p<0.005) was “significantly increased” and the “paw withdrawal threshold, mechanical allodynia” value (rats subjected to SNL [3]) was “no significant threshold increase”.

For `CC(=O)O.Fc1ccc(-c2ncncc2CCN2CCCCC2)cc1` [C6, 1-{2-[4-(4-fluorophenyl)pyrimidin-5-yl]ethyl}piperidinium acetate with 0.8 water molecules], the “antinociceptive effect … vs post-surgery control” value [1, 4] was “antinociceptive effects in the first day of treatment”.

In the case of `Fc1ccc(-c2n[nH]cc2CCN2CCCCC2)cc1` [C1, 1-{2-[3-(4-fluorophenyl)-1H-pyrazol-4-yl]ethyl}piperidine], the melting point is reported as 145 to 146 °C.
